In US9687572B2, “PSMA-targeted dendrimers” (MOLECULAR INSIGHT PHARMACEUTICALS, INC., priority 2010, dated 2017):

Target: T1, PSMA (Homo sapiens, UniProt Q04609)
T1 construct: host or cells: LNCaP human prostate cancer cells
Test: Competitive binding assay against [123I]-MIP-1072 on LNCaP cells
Conditions: FIG. 1
Method: The newly prepared analogs of the general structure 5 were screened in a human prostate cancer cell binding assay at a concentration of 3 nM using PSMA positive (+), LnCap cells.
Human prostate cancer cell line, LNCaP (PSMA positive) were obtained from the American Type Culture Collection (Rockville, Md.). LNCaP cells were maintained in RPMI-1640 medium (Invitrogen, Carlsbad, Calif.) supplemented with 10% fetal bovine serum (Hyclone, Logan, Utah) in a humidified incubator at 37° C./5% CO2. Cells were removed from flasks for passage or for transfer to 12-well assay plates by incubating them with 0.25% trypsin/EDTA (Invitrogen, Carlsbad, Calif.).
In a typical competitive binding assay, LNCaP cells were plated in 12-well plates at approximately 4×10^5 cells/well and incubated for 48 hours in a humidified incubator at 37° C./5% carbon dioxide prior to addition of PSMA inhibitors. The exemplary EDTA-PSMA tetramer MIP-1444 was diluted in serum-free cell culture medium containing 0.5% bovine serum albumin (BSA). Diluted MIP-1444 was added to the cells in the presence of 3 nM [^123I]-MIP-1072 for 1 hour at room temperature. Cells were removed from the plates by gently pipetting and transferred to 1.5 mL Eppendorff tubes. Samples were microcentrifuged for 30 seconds at 15K×g. […] Cell binding of [^123I]-MIP-1072 was determined by counting the cell pellet in a Wallac 1282 automated gamma counter. […]

T1 sequence (Q04609 whole entry): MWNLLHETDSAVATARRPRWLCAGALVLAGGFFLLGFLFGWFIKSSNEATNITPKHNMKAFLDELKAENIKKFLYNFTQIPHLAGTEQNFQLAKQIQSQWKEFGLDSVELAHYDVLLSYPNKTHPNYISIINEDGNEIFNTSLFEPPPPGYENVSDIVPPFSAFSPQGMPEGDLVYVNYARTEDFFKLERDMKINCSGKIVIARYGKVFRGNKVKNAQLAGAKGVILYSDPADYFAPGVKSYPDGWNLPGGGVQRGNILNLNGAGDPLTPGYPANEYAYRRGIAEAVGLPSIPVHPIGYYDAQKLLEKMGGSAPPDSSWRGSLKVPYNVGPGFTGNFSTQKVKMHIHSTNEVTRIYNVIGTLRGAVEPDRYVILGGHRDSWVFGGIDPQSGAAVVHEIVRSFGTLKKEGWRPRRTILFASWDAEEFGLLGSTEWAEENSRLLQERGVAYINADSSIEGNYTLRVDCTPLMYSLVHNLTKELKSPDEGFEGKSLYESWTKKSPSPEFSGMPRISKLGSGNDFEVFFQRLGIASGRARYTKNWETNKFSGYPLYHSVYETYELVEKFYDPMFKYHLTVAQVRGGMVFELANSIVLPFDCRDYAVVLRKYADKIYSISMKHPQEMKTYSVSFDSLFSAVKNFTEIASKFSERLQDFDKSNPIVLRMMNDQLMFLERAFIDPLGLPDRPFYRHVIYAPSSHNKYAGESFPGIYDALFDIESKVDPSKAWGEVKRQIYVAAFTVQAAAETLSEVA

IC50 value fold greater than the IC50 for the tetramer MIP-1444 (3 nM [123I]-MIP-1072, 1 hour at room temperature): 36 fold
affinity for PSMA (in words) (competitive binding curves): low affinity
SMILES: NCCCC[C@H](NC(=O)N[C@@H](CCC(=O)O)C(=O)O)C(=O)O [MIP-1033]
